Test [1] addresses human ODC. In words: ODC enzyme activity inhibition by AZ peptides (without AZI). The test is classed as biochemical. Conditions: for IC50: ODC fixed at 20 µg/mL (0.19 µM), CO2-L3K coupled assay, 405 nm, 37°C, 30 mM Tris-HCl pH 7.8, 10 mM ornithine, 0.2 mM PLP, fit of inhibition curves; for IC50 (AZ peptide)/IC50 (AZ_WT): ratio to AZ_WT; for ODC inhibition ability (in words): relative ODC activity, Figure 2. The procedure: Figure 2 Relative ODC enzyme activity in the presence of AZ peptides. The activity of ODC was inhibited by various concentrations of AZ peptides. ODC concentrations were fixed at 20 µg/mL (0.19 µM). The IC50 values of AZ peptides shown in Table 1 were derived from fitting these inhibition curves. The molar ratio refers to AZ peptide versus ODC monomer.
(§1) The ODC enzyme activity was determined using a CO2-L3K assay kit (DCL, Charlottetown, Canada) at 37°C. The continuous measurement of ODC enzyme activity was coupled to the carboxylation of PEP to oxaloacetate and the oxidation of oxaloacetate to malate, as previously reported. The reaction mixture contains 30 mM Tris-HCl at pH 7.8, 10 mM ornithine, 0.2 mM […] and 0.4 ml of the CO2-L3K assay kit solution, which contains 12.5 mM PEP, >0.4 U/ml phosphoenolpyruvate carboxylase (microbial), >4.1 U/ml malate dehydrogenase (mammalian) and 0.6 mM NADH analog in a final volume of 0.5 ml.
For the AZ inhibition experiment, the ODC enzyme (0.19 µM) and various amounts of AZ were added to the reaction mixture. The reaction was started after the ODC was added, and the absorbance decrease at 405 nm was continuously traced using a Perkin-Elmer Lamba-25 spectrophotometer. In this coupled reaction, the production of 1 mol of CO2 was concomitant with the oxidation of 1 mol of NADH analog. An extinction coefficient of 2410 M ^−1 was used for the NADH analog in the calculations.
(§2) To evaluate the inhibitory effect of AZ, the inhibited ODC enzyme activity versus [AZ] was fitted with the following equation to estimate the IC50 value: [drawing 1] where A and B are the minimum and maximum ODC enzyme activity, respectively, and the Hill slope gives the largest slope of the curve. The IC50 value represents the concentration of AZ required for 50% inhibition of ODC enzyme activity. All of the calculations were done using the SigmaPlot 10.0 software program (Jandel, San Rafael, CA).

The target in test [2] is human ODC (equilibrated with equimolar AZI). In words: ODC enzyme activity inhibition by AZ peptides in the presence of AZI. The following applies: for IC50 (with AZI)/IC50 (without AZI): ratio with/without equimolar AZI. The test is classed as biochemical. The procedure:
AZ has a greater affinity for AZI than ODC, such that the formation of an AZ-AZI heterodimer will release the ODC monomer from an AZ-ODC complex and rapidly restore ODC enzyme activity. Here, we examined the inhibition of ODC enzyme activity by AZ peptides in the presence of AZI. The ODC enzyme was first pre-incubated with AZI, keeping the molar ratio of AZI monomer/ODC monomer at unity. […] Table 1 illustrates the IC50 values of the AZ peptides in the presence of AZI, showing that all of the IC50 values for the AZ peptides with AZI were larger than the values without AZI.
Figure 4 Relative ODC enzyme activities in the presence of AZ and AZI. ODC enzymes equilibrated with equimolar AZI were inhibited by various concentrations of AZ peptides. The concentrations of AZI and ODC were fixed at 18.9 µg/mL and 20 µg/mL, respectively (the ratio of AZI monomer versus ODC monomer was fixed at 1). Panels A–H show the inhibition curves of ODC for each AZ peptide in the absence (closed circles) and in the presence (open circles) of AZI.
as §1, §2

The test system of test [3] is human ODC. Kind of test: AZ peptide-ODC complex size distribution by analytical ultracentrifugation. The test is classed as binding. Conditions: for K d,AZ-ODC fold higher than that of AZ_WT: ratio to AZ_WT. The procedure: AZ binds ODC, dissociates the ODC dimer and then inactivates the enzyme, [20]. […] In order to determine the differential binding affinity of these AZ peptides toward ODC, the size distributions of ODC with different concentrations of AZ peptides were analyzed. All sedimentation data were globally fitted with the AB hetero-association model in the SEDPHAT program to obtain the dissociation constant (K d) between ODC and AZ (Figure 3 and Table 2).
Figure 3 Continuous sedimentation coefficient distribution of human ODC in the presence of AZ peptide. The concentration of ODC was fixed at 0.3 mg/mL with concentrations of AZ ranging from 0.015 to 0.2 mg/mL (the molar ratio of AZ/ODC ranged from 0.12 to 2) in a buffer of 30 mM Tris-HCl (pH 7.4) and 25 mM NaCl at 20°C. The sedimentation velocity data were globally fitted with the SEDTHAT program to obtain K d values for the AZ peptide-ODC complex (Table 2).
A Beckman Optima XL-A analytical ultracentrifuge was used for sedimentation velocity experiments. Reference and sample sectors in the centerpiece were filled with buffer (400 µl) and sample protein (0.3 mg/mL, 380 µl), respectively, and then the cell was built up in an An-50 Ti rotor. Sedimentation velocity experiments were performed at 20°C with a rotor speed of 42,000 rpm. The data were traced by absorbance at 280 nm in continuous mode, with a time interval of 420 s and a step size of 0.002 cm. A total of 20–30 scans at different time points were collected and fitted to a continuous size distribution model using the program SEDFIT [54]–[55]. All size distributions were calculated at 0.1 to 20 S with a confidence level of p = 0.95 and a resolution N of 200.
In order to determine the dissociation constants (K d) of the AZ peptide-ODC and AZ peptide-AZI complexes, sedimentation velocity experiments were performed at different concentrations of AZ or AZ peptide with a constant concentration of human ODC or AZI. The K d values of the AZ peptide-ODC and AZ peptide-AZI complexes were calculated by a global fitting of all sedimentation data in the AB hetero-association model in the SEDPHAT program [56]–[57]. The partial specific volumes of the proteins, the solvent densities, and the viscosity were calculated by the SEDNTERP program.

“Also recorded” adds a separate entry of the source.

In the case of “AZ_87-228: truncated human AZ protein, residues 87-228”, on human ODC [1], the half-inhibitory concentration (IC50) (as a rule, the concentration that gives 50% inhibition) turned out to be 170 nM and the “IC50 (AZ peptide)/IC50 (AZ_WT)” value was determined as 1.1.

Turning to “AZ_87-124: truncated human AZ protein, residues 87-124”, the “IC50 (AZ peptide)/IC50 (AZ_WT)” value on human ODC [1] came out at 3.2. Besides, the “IC50 (with AZI)/IC50 (without AZI)” value in test [2] is 3.0.

For “AZ_100-124: truncated human AZ protein, residues 100-124”, at human ODC [1], the IC50 came out at 820 nM, the “IC50 (AZ peptide)/IC50 (AZ_WT)” value came to 5.0 and the “ODC inhibition ability (in words)” value is “notably weaker inhibition ability than AZ_100-228”.

On to “AZ_126-228: truncated human AZ protein, residues 126-228”, for which, on human ODC [1], half-maximal inhibition (IC50) was put at 1190 nM and the “IC50 (AZ peptide)/IC50 (AZ_WT)” value was determined as 7.3.

For the substance “AZ_95-228: truncated human AZ protein, residues 95-228”, the “K d,AZ-ODC fold higher than that of AZ_WT” value in the test on human ODC [3] is 2.1 fold. Moreover, at human ODC [1], the “IC50 (AZ peptide)/IC50 (AZ_WT)” value stood at 1.0 and the “ODC inhibition ability (in words)” value is “also similar to that of AZ_WT”. Moreover, in test [2], the “IC50 (with AZI)/IC50 (without AZI)” value is listed as 3.5.

Turning to “AZ_95-169: truncated human AZ protein, lacking β-strand 6, residues 95-169”, on human ODC [1], inhibition was half-maximal at 370 nM (IC50), the “IC50 (AZ peptide)/IC50 (AZ_WT)” value came to 2.3 and the “ODC inhibition ability (in words)” value is “displayed a noteworthy decrease in ODC inhibition ability”.

Turning to “AZ_106-228: truncated human AZ protein, residues 106-228”, at human ODC [1], inhibition was half-maximal at 370 nM (IC50), the “IC50 (AZ peptide)/IC50 (AZ_WT)” value turned out to be 2.3 and the “ODC inhibition ability (in words)” value was “weaker inhibition ability than AZ_100-228”.

Turning to “AZ_114-228: truncated human AZ protein, residues 114-228”, on human ODC [1], the concentration for half-maximal inhibition (IC50) turned out to be 970 nM and the “IC50 (AZ peptide)/IC50 (AZ_WT)” value is 6.0.

Antizyme [AZ_WT]: the “Size distribution of ODC in the presence of AZ (in words)” value with human ODC [3] (sedimentation velocity, 20°C, Figure 3) is listed as “disrupted dimeric ODC to form AZ-ODC complexes”. For the same substance, at human ODC [1], the “IC50 (AZ peptide)/IC50 (AZ_WT)” value is recorded as 1.0. For the same substance, the “Inhibition of ODC with AZI relative to AZ_WT or to without AZI (in words)” value in test [2] (equimolar AZI, Figure 4) is “lower than in the absence of AZI”. Also, the “IC50 (with AZI)/IC50 (without AZI)” value in test [2] stood at 3.1.

Consider “AZ_95-135: truncated human AZ protein, residues 95-135”, for which the “IC50 (AZ peptide)/IC50 (AZ_WT)” value on human ODC [1] was 3.2. The “IC50 (with AZI)/IC50 (without AZI)” value in test [2] is 3.1.

With “AZ_152-228: truncated human AZ protein, residues 152-228”, the “ODC inhibition ability (in words)” value in the test on human ODC [1] is listed as “almost no ODC inhibition, even at high concentrations of AZ”.

As for “AZ_100-228: truncated human AZ protein, residues 100-228”, in the test on human ODC [3], the “K d,AZ-ODC fold higher than that of AZ_WT” value was 7.5 fold. Besides, the “IC50 (AZ peptide)/IC50 (AZ_WT)” value on human ODC [1] was found to be 1.3. Moreover, in test [2], the “IC50 (with AZI)/IC50 (without AZI)” value came out at 3.0.

“AZ_177-228: truncated human AZ protein, residues 177-228 (HKNREDRAALLRTFSFLGFEIVRPGHPLVPKRPDACFMAYTFERESSGEEEE; UniProt P54368 177-228, looked up, fragment)”: the “ODC inhibition ability (in words)” value in the test with human ODC [1] is recorded as “almost no ODC inhibition, even at high concentrations of AZ; also recorded: displays no inhibition of ODC activity”.

For the substance “AZ_95-124: truncated human AZ protein, residues 95-124”, the “IC50 (AZ peptide)/IC50 (AZ_WT)” value on human ODC [1] is reported as 4.0. For the same substance, the “IC50 (with AZI)/IC50 (without AZI)” value in test [2] is given as 3.0.

In the case of “AZ_100-135: truncated human AZ protein, residues 100-135”, at human ODC [1], inhibition was half-maximal at 860 nM (IC50), the “IC50 (AZ peptide)/IC50 (AZ_WT)” value worked out at 5.3 and the “ODC inhibition ability (in words)” value is “notably weaker inhibition ability than AZ_100-228”.

Consider “AZ_95-176: minimal AZ peptide fully functioning in the binding of ODC and AZI, residues 95-176”, for which the “K d,AZ-ODC fold higher than that of AZ_WT” value in the test on human ODC [3] is 7.8 fold. On human ODC [1], the “IC50 (AZ peptide)/IC50 (AZ_WT)” value was determined as 1.2 and the “ODC inhibition ability (in words)” value was “retained most of the inhibition ability”. Besides, the “IC50 (with AZI)/IC50 (without AZI)” value in test [2] is recorded as 3.4.

For “AZ_100-176: truncated human AZ protein, residues 100-176”, on human ODC [1], the “IC50 (AZ peptide)/IC50 (AZ_WT)” value was determined as 2.6 and the “ODC inhibition ability (in words)” value was “had a lower inhibition ability than that of AZ_100-228; also recorded: not as good as that of AZ_95-176 or AZ_100-228”. The “IC50 (with AZI)/IC50 (without AZI)” value in test [2] is reported as 3.3.

The values are drawn from article PMC3170320, “Minimal Antizyme Peptide Fully Functioning in the Binding and Inhibition of Ornithine Decarboxylase and Antizyme Inhibitor” (PLoS ONE, 2011).
